From patent publication US20060265137A1, “Methods to increase the capacity of high content cell-based screening assays” (Cellomics, Inc., priority 2001, published 2006)

Tests used:
p38 and c-jun = experiment: Primary high content screen, red channel: cytoplasm to nucleus translocation of p38 and c-jun (pooled reporter set); assay type: cell-based; details: Swiss 3T3 cells, 30 minutes treatment, ALEXA FLUOR 568 secondary antibodies, FIG. 6
From the text: (§1) 1. Cytoplasm to nuclear translocation: (A preferred embodiment of the method is described in detail in U.S. Pat. No. 5,989,835) A nuclear image is acquired and preferably thresholded to create a nuclear mask. A cytoplasmic image is created using either the nuclear image or the fluorescent signals from the fluorescent reporter molecules in the reporter set. Preferably, a cytoplasmic mask is created. Translocation of the fluorescent reporter molecules in an appropriate reporter set(s) between the nucleus and cytoplasm can then be determined by detecting fluorescent signals in the nuclear mask and cytoplasmic mask in the presence and absence of the one or more test compounds.
(§2) In this example, two reporter sets were used, each containing two fluorescent reporter molecules. The first reporter set consisted of ALEXA FLUOR® 488 conjugated secondary antibodies (Molecular Probes, Inc.), which both emit fluorescence detectable in the green channel. These secondary antibodies were used to bind to primary antibodies against extracellular (signal) regulated kinase (ERK) (Cell Signaling Technologies, Inc.) and Nf-kB (Zymed, Inc.). The second reporter set consisted of ALEXA FLUOR® 568 conjugated secondary antibodies (Molecular Probes, Inc.) which both emit fluorescence detectable in the red channel. These secondary antibodies were used to bind to primary antibodies against c-jun and p38.
(§3) In this experiment, the transcription factors under investigation translocate from the cytoplasm to the nucleus upon activation. Therefore, the fluorescent reporter molecules, which indirectly bind to the transcription factors, can be used to monitor the distribution of the transcription factors within the cell. However, each reporter reports on a different cellular event (i.e.: ERK translocation, Nf-kB translocation, c-jun translocation, and p38 translocation).
(§4) Swiss 3T3 cells in EMEM culture medium were plated in 96 well plates, at a plating density of 3,500 cells per well, and allowed to incubate overnight. […]

NFkB and ERK = experiment: Primary high content screen, green channel: cytoplasm to nucleus translocation of NFkB and ERK (pooled reporter set); assay type: cell-based; details: Swiss 3T3 cells, 30 minutes treatment, ALEXA FLUOR 488 secondary antibodies, versus negative controls, FIG. 5
From the text: as §1, §2, §3, §4

| Compound | translocation in the red channel (p38 and c-jun) (p38 and c-jun) | translocation in the green channel (NFkB and ERK; difference between cytoplasm and nuclear localization) (NFkB and ERK) |
| --- | --- | --- |
| CCCCCCCCCCCCCC(=O)O[C@@H]1[C@@H](C)[C@@]2(O)[C@@H](C=C(CO)C[C@]3(O)C(=O)C(C)=C[C@@H]23)[C@@H]2C(C)(C)[C@]12OC(C)=O [PMA] | increase in translocation for p38 and c-jun | both NFkB and ERK specific translocations can be observed |
| COc1ccc(C[C@H]2NC[C@H](O)[C@H]2OC(C)=O)cc1 [anisomysin] | increase in translocation for p38 and c-jun | no effect on translocation in the green channel over negative controls |
| TNF | not | both NFkB and ERK specific translocations can be observed |
